Measured values reported in patent US11771662B2, “Analgesic formulation for control of pain in dogs” (Kansas State University Research Foundation, priority 2017, dated 2023).
Read-outs that look alike come from different tables or passages of the source.

How the values were obtained:
[1] = Plasma methadone, naltrexone and naltrexone metabolites, multiple oral doses (Example III); assay type: in vivo, dog; details: multiple oral doses of methadone/fluconazole/naltrexone formulation
From the text: Twelve healthy Beagle dogs were divided into two groups of 6 each in a parallel study design. […] Group 1 simulated a patient dropped off the night before surgery, while Group 2 simulated a patient dropped off in the morning for same day early afternoon surgery. Rectal temperature was monitored as a marker of central opioid effects throughout the study and von Frey thresholds were obtained to assess the antinociceptive effects.

[2] = Plasma methadone, fluconazole, naltrexone and naltrexone metabolite concentrations (Example IV)
From the text: Anesthesia was monitored by licensed veterinary technicians.

[3] = group administered naltrexone 0.25 mg/kg PO with methadone and fluconazole
From the text: (§1) Twelve healthy Beagle dogs were divided into two groups of 6 each in a parallel study design. […] Rectal temperature was monitored as a marker of central opioid effects throughout the study.

[4] = test system: healthy Beagle dogs; test: Rectal temperature as marker of central opioid effects, methadone/fluconazole with or without naltrexone (Example II); assay type: in vivo, dog; details: naltrexone 0.25 mg/kg PO added to methadone 1 mg/kg and fluconazole 5 mg/kg PO
From the text: as §1

O=C(O)[C@H]1O[C@@H](Oc2ccc3c4c2O[C@H]2C(=O)CC[C@@]5(O)[C@@H](C3)N(CC3CC3)CC[C@]425)[C@H](O)[C@@H](O)[C@@H]1O [naltrexone glucuronide]
Plasma detection of analyte [1]: detected in both groups
Plasma detection of analyte ([2]; oral methadone groups): measured in most of the samples
Plasma detection of analyte [3]: detected

Oc1ccc2c3c1O[C@H]1[C@H](O)CC[C@@]4(O)[C@@H](C2)N(CC2CC2)CC[C@]314 [β-naltrexol]
Highest measured plasma concentration ([2]; oral methadone groups): 1.7 ng/mL

O=C1CC[C@@]2(O)[C@H]3Cc4ccc(O)c5c4[C@@]2(CCN3CC2CC2)[C@H]1O5 [naltrexone]
Effect of addition of naltrexone on central opioid effects of methadone with fluconazole [4]: did not affect the central opioid effects
Plasma detection of analyte relative to LOQ of the assay (1 ng/mL) [1]: rarely detected above the LOQ
Plasma detection of analyte ([2]; any group): not detected in any plasma sample from any group
Plasma detection of analyte relative to LOQ of the assay (1 ng/mL) [3]: rarely detected above the LOQ
